This test concerns the target T1, vanilloid receptor 1 (VR1/TRPV1 receptor) (Homo sapiens, UniProt Q8NER1).
T1 construct: expressed in transfected cells; host or cells: CHO K1 cells (ECACC), stably transfected
As to the kind of experiment: VR1/TRPV1 receptor affinity, capsaicin stimulus (human). It counts as cell-based, human being. Also noted: key to (f) Ki (human being) [nM] Cap: result in words: AG=agonist; pAG=partial agonist; NE=no effect. As to conditions: for (f) Ki (human being) [nM] Cap: result in words: Tables 8-12; for Ki: Tables 8-12, read-out: (f) Ki (human being) [nM] Cap.

T1 sequence (Q8NER1 whole entry): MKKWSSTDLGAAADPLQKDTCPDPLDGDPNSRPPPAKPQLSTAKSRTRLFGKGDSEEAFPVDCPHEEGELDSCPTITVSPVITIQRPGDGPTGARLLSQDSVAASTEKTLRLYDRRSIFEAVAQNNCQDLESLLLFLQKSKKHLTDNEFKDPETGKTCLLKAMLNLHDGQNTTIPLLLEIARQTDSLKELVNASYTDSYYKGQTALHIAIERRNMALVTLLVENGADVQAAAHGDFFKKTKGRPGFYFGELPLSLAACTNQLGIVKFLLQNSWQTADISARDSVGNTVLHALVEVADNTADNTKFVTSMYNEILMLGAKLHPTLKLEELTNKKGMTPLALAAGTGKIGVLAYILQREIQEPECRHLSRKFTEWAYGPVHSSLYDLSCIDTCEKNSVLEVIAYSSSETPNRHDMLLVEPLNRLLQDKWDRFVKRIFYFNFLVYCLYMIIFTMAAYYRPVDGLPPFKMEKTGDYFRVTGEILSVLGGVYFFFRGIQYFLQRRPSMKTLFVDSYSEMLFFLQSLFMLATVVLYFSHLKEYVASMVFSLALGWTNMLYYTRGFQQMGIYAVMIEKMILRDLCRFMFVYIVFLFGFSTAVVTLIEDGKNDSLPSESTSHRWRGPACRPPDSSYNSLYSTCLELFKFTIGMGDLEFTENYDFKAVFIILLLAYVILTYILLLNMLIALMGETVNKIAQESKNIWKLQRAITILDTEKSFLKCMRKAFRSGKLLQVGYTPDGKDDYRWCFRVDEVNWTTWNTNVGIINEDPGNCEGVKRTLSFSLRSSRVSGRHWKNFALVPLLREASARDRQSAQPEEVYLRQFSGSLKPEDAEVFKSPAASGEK

Consider `CC(C(=O)NCc1cc(C(C)(C)C)nn1-c1ccc(F)c(F)c1)c1ccc(CO)c(F)c1` (centres unmarked) [Example A39, N-[[5-tert-Butyl-2-(3,4-difluoro-phenyl)-2H-pyrazol-3-yl]-methyl]-2-[3-fluoro-4-(hydroxymethyl)-phenyl]-propionamide], for which the “(f) Ki (human being) [nM] Cap: result in words” value (“(f) Ki (human being) [nM] Cap” below) is “AG”.

As to `CC(C(=O)NCc1cc(C(C)(C)C)nn1-c1ccc(F)c(Cl)c1)c1ccc(CO)c(F)c1` (centres unmarked) [Example A41, N-[[5-tert-Butyl-2-(3-chloro-4-fluoro-phenyl)-2H-pyrazol-3-yl]-methyl]-2-[3-fluoro-4-(hydroxymethyl)-phenyl]-propionamide], the “(f) Ki (human being) [nM] Cap” value is listed as “AG”.

For the molecule `CC(C(=O)NCc1cc(C(C)(C)C)nn1-c1cccc(C(F)(F)F)c1)c1ccc(CO)c(F)c1` (centres unmarked) [Example A47, N-[[5-tert-Butyl-2-[3-(trifluoromethyl)phenyl]-2H-pyrazol-3-yl]-methyl]-2-[3-fluoro-4-(hydroxymethyl)-phenyl]-propionamide], the “(f) Ki (human being) [nM] Cap” value is listed as “AG”.

As to `CC(C(=O)NCc1cc(C(F)(F)F)nn1-c1cccc(C(F)(F)F)c1)c1ccc(CO)c(F)c1` (centres unmarked) [Example A48, 2-[3-Fluoro-4-(hydroxymethyl)-phenyl]-N-[[5-(trifluoromethyl)-2-[3-(trifluoromethyl)phenyl]-2H-pyrazol-3-yl]-methyl]-propionamide], the “(f) Ki (human being) [nM] Cap” value is “AG”.

On to `COc1cc(C(C)C(=O)NCc2cc(C(C)(C)C)nn2-c2cccc(Cl)c2)ccc1CO` (centres unmarked) [Example A49, N-[[5-tert-Butyl-2-(3-chlorophenyl)-2H-pyrazol-3-yl]-methyl]-2-[4-(hydroxymethyl)-3-methoxy-phenyl]-propionamide], for which the “(f) Ki (human being) [nM] Cap” value is on record as “AG”.

By Ki is commonly meant a measure of affinity in units of concentration, obtained from inhibition or displacement. For the molecule `CC(C(=O)NCc1cc(C(F)(F)F)nn1-c1cccc(Cl)c1)c1cc(F)c(CO)c(F)c1` (centres unmarked) [Example A52, N-[[2-(3-Chlorophenyl)-5-(trifluoromethyl)-2H-pyrazol-3-yl]-methyl]-2-[3,5-difluoro-4-(hydroxymethyl)-phenyl]-propionamide], the Ki is 40 nM.

For `CC(O)c1ccc(C(C)C(=O)NCc2cc(C(C)(C)C)nn2-c2cccc(Cl)c2)cc1F` (centres unmarked) [Example A98, N-[[5-tert-Butyl-2-(3-chlorophenyl)-2H-pyrazol-3-yl]-methyl]-2-[3-fluoro-4-(1-hydroxy-ethyl)-phenyl]-propionamide], the “(f) Ki (human being) [nM] Cap” value is listed as “AG”.

On to `CC(C(=O)NCc1cc(C(C)(C)C)nn1-c1cccc(Cl)c1)c1ccc(CCO)c(F)c1` (centres unmarked) [Example A139, N-[[5-tert-Butyl-2-(3-chlorophenyl)-2H-pyrazol-3-yl]-methyl]-2-[3-fluoro-4-(2-hydroxy-ethyl)-phenyl]-propionamide], for which the “(f) Ki (human being) [nM] Cap” value is reported as “AG”.

For `CC(C)(C)c1cc(CNC(=O)Nc2ccc(CCO)c(F)c2)n(-c2cccc(Cl)c2)n1` [Example A140, 1-[[5-tert-Butyl-2-(3-chlorophenyl)-2H-pyrazol-3-yl]-methyl]-3-[3-fluoro-4-(2-hydroxy-ethyl)-phenyl]-urea], the “(f) Ki (human being) [nM] Cap” value was “AG”.

Consider `CC(C(=O)NCc1cc(C(C)(C)C)nn1-c1cccc(Cl)c1)c1ccc(C(O)CO)c(F)c1` (centres unmarked) [Example A145, N-[[5-tert-Butyl-2-(3-chlorophenyl)-2H-pyrazol-3-yl]-methyl]-2-[4-(1,2-dihydroxy-ethyl)-3-fluoro-phenyl]-propionamide], for which the “(f) Ki (human being) [nM] Cap” value was “AG”.

With `CC(C(=O)NCc1cc(C(C)(C)C)nn1-c1cccc(Cl)c1)c1ccc(C(O)CO)cc1` (centres unmarked) [Example A147, N-[[5-tert-Butyl-2-(3-chlorophenyl)-2H-pyrazol-3-yl]-methyl]-2-[4-(1,2-dihydroxy-ethyl)-phenyl]-propionamide], the “(f) Ki (human being) [nM] Cap” value is “AG”.

With `CC(C(=O)NCc1cc(C(F)(F)F)nn1-c1cccc(Cl)c1)c1ccc(CNS(C)(=O)=O)c(F)c1` (centres unmarked) [Example B1, N-[[2-(3-Chlorophenyl)-5-(trifluoromethyl)-2H-pyrazol-3-yl]-methyl]-2-[3-fluoro-4-(methanesulfonamido-methyl)-phenyl]-propionamide], the Ki was found to be 5 nM.

Turning to `CC(C(=O)NCc1cc(C(F)(F)F)nn1-c1ccc(F)c(Cl)c1)c1ccc(CNS(C)(=O)=O)c(F)c1` (centres unmarked) [Example B2, N-[[2-(3-Chloro-4-fluoro-phenyl)-5-(trifluoromethyl)-2H-pyrazol-3-yl]-methyl]-2-[3-fluoro-4-(methanesulfonamido-methyl)-phenyl]-propionamide], the Ki is 2.4 nM.

For `CC(C(=O)NCc1cc(C(C)(C)C)nn1-c1ccc(F)c(Cl)c1)c1ccc(CNS(C)(=O)=O)c(F)c1` (centres unmarked) [Example B3, N-[[5-tert-Butyl-2-(3-chloro-4-fluoro-phenyl)-2H-pyrazol-3-yl]-methyl]-2-[3-fluoro-4-(methanesulfonamido-methyl)-phenyl]-propionamide], the Ki came to 3 nM.

Take `CC(C(=O)NCc1cc(C(F)(F)F)nn1-c1cccc(Cl)c1)c1ccc(CNS(C)(=O)=O)cc1` (centres unmarked) [Example B5, N-[[2-(3-Chlorophenyl)-5-(trifluoromethyl)-2H-pyrazol-3-yl]-methyl]-2-[4-(methanesulfonamido-methyl)-phenyl]-propionamide]: the Ki was 9 nM.

In the case of `CC(C(=O)NCc1cc(C(C)(C)C)nn1-c1cccc(Cl)c1)c1ccc(CNS(C)(=O)=O)cc1` (centres unmarked) [Example B6, N-[[5-tert-Butyl-2-(3-chlorophenyl)-2H-pyrazol-3-yl]-methyl]-2-[4-(methanesulfonamido-methyl)-phenyl]-propionamide], the Ki is 7 nM.

Consider `CC(C(=O)NCc1cc(C(F)(F)F)nn1-c1cccc(F)c1)c1ccc(CNS(C)(=O)=O)c(F)c1` (centres unmarked) [Example B7, 2-[3-Fluoro-4-(methanesulfonamido-methyl)-phenyl]-N-[[2-(3-fluorophenyl)-5-(trifluoromethyl)-2H-pyrazol-3-yl]-methyl]-propionamide], for which the Ki was determined as 7 nM.

Turning to `CC(C(=O)NCc1cc(C(F)(F)F)nn1-c1cccc(C(F)(F)F)c1)c1ccc(CNS(C)(=O)=O)c(F)c1` (centres unmarked) [Example B8, 2-[3-Fluoro-4-(methanesulfonamido-methyl)-phenyl]-N-[[5-(trifluoromethyl)-2-[3-(trifluoromethyl)phenyl]-2H-pyrazol-3-yl]-methyl]-propionamide], the Ki worked out at 1 nM.

As for `CC(C(=O)NCc1cc(C(C)(C)C)nn1-c1cccc(F)c1)c1ccc(CNS(C)(=O)=O)c(F)c1` (centres unmarked) [Example B9, N-[[5-tert-Butyl-2-(3-fluorophenyl)-2H-pyrazol-3-yl]-methyl]-2-[3-fluoro-4-(methanesulfonamido-methyl)-phenyl]-propionamide], the inhibition constant Ki turned out to be 6 nM.

As for `CC(C(=O)NCc1cc(C(C)(C)C)nn1-c1ccc(F)c(F)c1)c1ccc(CNS(C)(=O)=O)c(F)c1` (centres unmarked) [Example B10, N-[[5-tert-Butyl-2-(3,4-difluoro-phenyl)-2H-pyrazol-3-yl]-methyl]-2-[3-fluoro-4-(methanesulfonamido-methyl)-phenyl]-propionamide], the Ki is 6 nM.

In the case of `COc1cc(NC(=O)NCc2cc(C(C)(C)C)nn2-c2cccc(Cl)c2)ccc1CNS(C)(=O)=O` [Example B11, 1-[[5-tert-Butyl-2-(3-chlorophenyl)-2H-pyrazol-3-yl]-methyl]-3-[4-(methanesulfonamido-methyl)-3-methoxy-phenyl]-urea], the Ki is 9 nM.

Regarding `COc1cc(NC(=O)NCc2cc(C(F)(F)F)nn2-c2cccc(Cl)c2)ccc1CNS(C)(=O)=O` [Example B12, 1-[[2-(3-Chlorophenyl)-5-(trifluoromethyl)-2H-pyrazol-3-yl]-methyl]-3-[4-(methanesulfonamido-methyl)-3-methoxy-phenyl]-urea], the Ki stood at 41 nM.

For `CC(C(=O)NCc1cc(C(C)(C)C)nn1-c1cccc(Cl)c1)c1ccc(CNS(C)(=O)=O)c(Cl)c1` (centres unmarked) [Example B13, N-[[5-tert-Butyl-2-(3-chlorophenyl)-2H-pyrazol-3-yl]-methyl]-2-[3-chloro-4-(methanesulfonamido-methyl)-phenyl]-propionamide], the Ki came to 1 nM.

In the case of `CNCc1ccc(NC(=O)NCc2cc(C(F)(F)F)nn2-c2cccc(Cl)c2)cc1` [Example B14, 1-[[2-(3-Chlorophenyl)-5-(trifluoromethyl)-2H-pyrazol-3-yl]-methyl]-3-[4-(methylamino-methyl)-phenyl]-urea], the Ki was found to be 64 nM.

As to `COc1cccc(-n2nc(C(F)(F)F)cc2CNC(=O)C(C)c2ccc(CNS(C)(=O)=O)c(F)c2)c1` (centres unmarked) [Example B15, 2-[3-Fluoro-4-(methanesulfonamido-methyl)-phenyl]-N-[[2-(3-methoxyphenyl)-5-(trifluoromethyl)-2H-pyrazol-3-yl]-methyl]-propionamide], the Ki is 6 nM.

For `CCS(=O)(=O)NCc1ccc(C(C)C(=O)NCc2cc(C(C)(C)C)nn2-c2cccc(Cl)c2)cc1F` (centres unmarked) [Example B16, N-[[5-tert-Butyl-2-(3-chlorophenyl)-2H-pyrazol-3-yl]-methyl]-2-[4-[[(ethylsulfonyl)amino]-methyl]-3-fluoro-phenyl]-propionamide], the Ki was 2 nM.

With `CCS(=O)(=O)NCc1ccc(C(C)C(=O)NCc2cc(C(F)(F)F)nn2-c2cccc(Cl)c2)cc1F` (centres unmarked) [Example B17, N-[[2-(3-Chlorophenyl)-5-(trifluoromethyl)-2H-pyrazol-3-yl]-methyl]-2-[4-[[(ethylsulfonyl)amino]-methyl]-3-fluoro-phenyl]-propionamide], the Ki turned out to be 3 nM.

For the molecule `CC(C(=O)NCc1cc(C(F)(F)F)nn1-c1ccc(Cl)cc1)c1ccc(CNS(C)(=O)=O)c(F)c1` (centres unmarked) [Example B18, N-[[2-(4-Chlorophenyl)-5-(trifluoromethyl)-2H-pyrazol-3-yl]-methyl]-2-[3-fluoro-4-(methanesulfonamido-methyl)-phenyl]-propionamide], the inhibition constant (Ki) was 13 nM.

Take `CC(C(=O)NCc1cc(C(F)(F)F)nn1-c1ccc(F)c(F)c1)c1ccc(CNS(C)(=O)=O)c(F)c1` (centres unmarked) [Example B19, N-[[2-(3,4-Difluoro-phenyl)-5-(trifluoromethyl)-2H-pyrazol-3-yl]-methyl]-2-[3-fluoro-4-(methanesulfonamido-methyl)-phenyl]-propionamide]: the Ki is 6 nM.

The record behind these values is US9624209B2, “Substituted phenylureas and phenylamides as vanilloid receptor ligands” (Gruenenthal GmbH, priority 2009, dated 2017).
